Counter-ions that a name gives are not always drawn. Like-named read-outs stand apart in the source and are kept apart here.
Legend:
Format in all cases: binding, sheep
[1] = system: IgG fraction of antiserum raised to Immunogen I
Protocol: (§1) An aqueous solution of each immunogen was formulated with Freund's Complete Adjuvant (FCA) to form an emulsion consisting of 2 mg/ml*immunogen in 50% (v/v) FCA. Three sheep were immunised with this emulsion (1° immunisation), 0.25 ml being intramuscularly injected at each of four sites in the flank of each animal. Subsequent immunizations (boosts) contained 1 mg/ml*immunogen. All boosts were emulsified in 50% (v/v) Freund's Incomplete Adjuvant (FIA) and were administered in the same manner as the 1° immunisation, at monthly intervals. Blood sampling took place 7 to 14 days after each boost. *The general procedure for immunogen administration is outlined above, however, it was necessary to deviate from this protocol in some cases, due to reduced immunogen concentrations (Immunogens II, IV, VII and VIII) and/or amount available (Immunogen VIII). Any deviations from the protocol described are outlined in Table 5 below and highlighted in bold.
(§2) The wells of an enhanced binding 96 well polystyrene microtiter plate were coated with IgG fraction of antiserum raised to Immunogen I or II, diluted in 10 mM Tris, pH8.5 (125 μl/well). The appropriate antibody coating dilution was determined using standard ELISA checkerboard techniques. The plate was incubated overnight at 4° C., washed 4 times over 10 minutes with Tris buffered saline containing Tween 20 (TBST) and tapped dry. Standard solutions (JWH-018 for Immunogens I and II) were applied at 0, 0.625, 1.25, 2.5, 5, 10, 20 and 40 ng/ml and 50 μl of each was added to the appropriate wells. 75 μl of conjugate (appropriate hapten-HRP) diluted in Tris buffer (pH 7.2) containing EDTA, D-mannitol, sucrose, thimerosal and BSA, was added to each of the wells. The appropriate dilution of conjugate was also determined using standard ELISA checkerboard techniques. The plate was incubated at 25° C. for 1 hour. Excess unbound conjugate was removed by washing 6 times over a 10 minute period with TBST. 125 μl of tetramethylbenzidine (TMB) substrate solution was added to each well of the plate that was then incubated for 20 minutes in the dark at room temperature. The reaction was terminated by addition of 125 μl 0.2M H2SO4 to each well. The absorbance was then measured at 450 nm using a microtiter plate reader. The data are inputted to a computer program called ‘KC Junior’. It is a 4 parameter fit curve and allow the calculation of concentrations between the standard runs. This program is used to calculate the IC50s by dividing the 0 ng/ml OD value by 2 and obtaining the concentration value from the curve for this OD.
In a similar manner to that described above, the wells of a 96-well microtiter plate were coated with the IgG fraction of the antiserum raised to Immunogens I or II. Standard solutions (JWH-018 for Immunogen I and II) were applied at 0, 0.625, 1.25, 2.5, 5, 10, 20 and 40 ng/ml and conjugate was employed as detection reagent.
(§3) The data set out in Tables 7-10 are generated using antibodies raised against the indicated Immunogens in a competitive binding assay with the indicated tracers, using the indicated standards
(§4) In order to determine the specificity of the competitive ELISAs, standard solutions of a range of structurally similar synthetic cannabinoids and their metabolites were prepared in TBST.
(§5) Using the calibration curves generated and employing a single level of cross reactants, these were used to determine the cross-reactivity of each immunoassay with these substances. These are the standards used for the IC50 and cross-reactivity data generation: […]

[2] = system: IgG fraction of antiserum raised to Immunogen II; experiment: Competitive ELISA, antibody RS1833B12 to Immunogen II, tracer ESC4555 (Example 36); conditions: Antibody to Immunogen II; cross-reactants at 100 ng/ml; 1000 ng/ml; standard JWH-018
Protocol: as §1
as §2, with “The” for “The wells of an enhanced binding 96 well polystyrene microtiter plate were coated with IgG fraction of antiserum raised to Immunogen I or II, diluted in 10 mM Tris, pH8.5 (125 μl/well). The”, “Standard solutions (JWH-018 for Immunogens I and II) were applied at 0, 0.625, 1.25, 2.5, 5, 10, 20 and 40 ng/ml and 50 μl of each was added to the appropriate wells.” left out, “runs.” for “runs. This program is used to calculate the IC50s by dividing the 0 ng/ml OD value by 2 and obtaining the concentration value from the curve for this OD.”
In a similar manner to that described above, the wells of a 96-well microtiter plate were coated with the IgG fraction of the antiserum raised to Immunogens I or II.
as §3, §5

[3] = system: IgG fraction of antiserum raised to Immunogen IV
Protocol: as §1, §2
(§6) In a similar manner to that described above, the wells of a 96-well microtiter plate were coated with the IgG fraction of the antiserum raised to Immunogens IV, VII or VIII. Standard solutions (JWH-018 for Immunogens IV and VIII, JWH-015 for Immunogen VII) were prepared in TBST at 0, 1.25, 2.5, 5, 10, 20, 40 and 80 ng/ml and conjugate was employed as detection reagent.
as §3, §4, §5

[4] = system: IgG fraction of antiserum raised to Immunogen VIII
Protocol: as §1, §2, §6, §3, §4, §5

[5] = system: IgG fraction of antiserum raised to Immunogen VII
Protocol: as §1, §2, §6, §3, §4, §5

[6] = Antibody to Immunogen I, cross-reactants at 100 ng/ml, 1000 ng/ml, standard JWH-018
[7] = Antibody to Immunogen IV, cross-reactants at 100 ng/ml, 1000 ng/ml, standard JWH-018
[8] = Antibody to Immunogen VIII, cross-reactants at 100 ng/ml, 1000 ng/ml, standard JWH-018
[9] = Antibody to Immunogen VII, cross-reactants at 100 ng/ml, 1000 ng/ml, standard JWH-015

Compound | % B/B0 [1, 6] | % B/B0 [2] | % B/B0 [3, 7] | % B/B0 [4, 8] | % B/B0 [5, 9] | % B/B0 [1] | % B/B0 [3] | % B/B0 [4] | % B/B0 [5]
CC(O)CCCn1cc(C(=O)c2cccc3ccccc23)c2ccccc21 (racemic) [(±)-JWH 018 N-(4-hydroxypentyl) metabolite] | 4.23% | 53.99% | 52.29% | 21.94% | 57.37% |  |  |  | 
CC(F)CCCn1cc(C(=O)c2cccc3ccccc23)c2ccccc21 (single isomer, unassigned) [AM-2201 N-(4-fluoropentyl) isomer] | 3.45% | 14.60% | 5.72% | 15.00% | 52.70% |  |  |  | 
CC(C)C(C)n1cc(C(=O)c2cccc3ccccc23)c2ccccc21 (single isomer, unassigned) [JWH 018 N-(1,2-dimethylpropyl) isomer] | 6.60% | 71.33% | 87.11% | 67.71% | 62.29% |  |  |  | 
CCCCCn1cc(C(=O)Cc2ccccc2Cl)c2ccccc21 [JWH-203] | 72.55% |  | 52.15% | 9.19% | 99.08% |  |  |  | 
CCCCCn1cc(C(=O)Cc2ccc(Cl)cc2)c2ccccc21 [JWH-206, JWH-203 4-chloro isomer] | 75.96% |  | 65.63% | 10.55% | 97.17% |  |  |  | 
CCCCCn1cc(C(=O)c2c(CC)ccc3ccccc23)c2ccccc21 [JWH-210 2-ethylnaphthyl isomer] | 81.37% |  | 53.97% | 73.51% | 96.13% |  |  |  | 
CCCCCn1cc(C(=O)c2ccc(CC)c3ccccc23)c2cc(O)ccc21 [JWH-210 5-hydroxyindole metabolite] | 83.29% |  | 48.91% | 87.72% | 100.43% |  |  |  | 
CCCCCn1cc(C(=O)c2cccc3ccc(CC)cc23)c2ccccc21 [JWH-210 7-ethylnaphthyl isomer] | 73.11% |  | 27.07% | 50.90% | 100.55% |  |  |  | 
CCc1ccc(C(=O)c2cn(CCCCCC(=O)O)c3ccccc23)c2ccccc12 [JWH-210 N-(5-carboxypentyl) metabolite] | 76.77% |  | 85.29% | 96.27% | 96.07% |  |  |  | 
CCCCCn1cc(C(=O)c2ccc(CC)c3ccccc23)c2ccccc21 [JWH-210] | 91.18% |  | 5.53% | 16.87% | 96.62% |  |  |  | 
CCCCCn1cc(C(=O)Cc2ccccc2OC)c2ccccc21 [JWH-250] | 78.94% |  | 41.08% | 9.40% | 97.23% |  |  |  | 
CCCCCn1cc(C(=O)Cc2ccccc2C)c2ccccc21 [JWH-251] | 68.01% |  | 42.02% | 9.12% | 96.74% |  |  |  | 
CCCCCn1cc(C(=O)Cc2cccc(OC)c2)c2ccccc21 [JWH-302] | 84.66% |  | 45.67% | 7.97% | 104.92% |  |  |  | 
CCCCCn1cc(C(=O)c2cccc(OC)c2)c2ccccc21 [RCS-4 3-methoxy isomer] | 31.19% |  | 25.65% | 10.95% | 94.72% |  |  |  | 
COc1ccc(C(=O)c2cn(CCCC(C)O)c3ccccc23)cc1 (stereo not shown) [RCS-4 N-(4-hydroxypentyl) metabolite] | 65.71% |  | 59.16% | 8.89% | 95.72% |  |  |  | 
COc1ccc(C(=O)c2cn(CCCCCC(=O)O)c3ccccc23)cc1 [RCS-4 N-(5-carboxypentyl) metabolite] | 77.12% |  | 91.44% | 91.97% | 94.00% |  |  |  | 
COc1ccc(C(=O)c2cn(CCCCCO)c3ccccc23)cc1 [RCS-4 N-(5-hydroxypentyl) metabolite] | 59.51% |  | 61.03% | 19.13% | 94.55% |  |  |  | 
CCCCn1cc(C(=O)c2ccc(OC)cc2)c2ccccc21 [RCS-4-C4 homologue] | 76.27% |  | 27.17% | 9.54% | 100.20% |  |  |  | 
CCCCCn1cc(C(=O)c2ccc(OC)cc2)c2ccccc21 [RCS-4] | 80.46% |  | 19.21% | 5.93% | 93.51% |  |  |  | 
COc1cccc(CC(=O)c2cn(CCC3CCCCC3)c3ccccc23)c1 [RCS-8 3-methoxy isomer] | 93.24% |  | 89.43% | 83.62% | 93.73% |  |  |  | 
COc1ccc(CC(=O)c2cn(CCC3CCCCC3)c3ccccc23)cc1 [RCS-8 4-methoxy isomer] | 94.94% |  | 90.78% | 100.72% | 98.21% |  |  |  | 
COc1ccccc1CC(=O)c1cn(CCC2CCCCC2)c2ccccc12 [RCS-8] | 82.65% |  | 85.50% | 88.79% | 94.57% |  |  |  | 
NCCc1c[nH]c2ccc(O)cc12 [Serotonin HCl] | 99.65% |  | 95.40% | 100.36% | 99.83% |  |  |  | 
COc1ccc(C(=O)c2c(C)n(CCN3CCOCC3)c3ccccc23)cc1 [WIN-48,098, Pravadoline] | 90.05% |  | 91.64% | 97.90% | 92.41% |  |  |  | 
CS(=O)(=O)O.Cc1c(C(=O)c2cccc3ccccc23)c2cccc3c2n1[C@@H](CN1CCOCC1)CO3 [Win 55,212-3 mesylate] | 34.00% |  | 94.57% | 101.30% | 32.31% |  |  |  | 
(+)-CP 55,940 | 103.25% |  | 91.38% | 95.12% | 97.15% |  |  |  | 
(−)-11-nor-9-Carboxy-delta9-THC |  |  |  |  |  | 100.47% | 93.08% | 103.36% | 98.72%
(−)-CP 55,940 | 98.27% |  | 93.02% | 97.58% | 101.15% |  |  |  | 

From patent publication US9434687B2, “Detection of synthetic cannabinoids” (priority 2011, dated 2016)
